According to patent US20240270821A1, “GIP/GLP1/GCG TRI-RECEPTOR AGONISTS AND USES THEREOF” (priority 2023, published 2024):
pEC50: −log10 of the molar value. Read-outs that look alike come from different tables or passages of the source. Starred links: 1 amine or outer side, 2 acyl side, 3 side chain; linkers in the order of their positions; H or OH if unused. Non-standard residues stand in square brackets, D forms with d. Residues, ends and D or L forms follow the SMILES beside them. Groups on a side chain read outwards from the residue. No end group written: not given here. *: point of attachment. C18 diacid = O=C(O)CCCCCCCCCCCCCCCCC(=O)*; αMePhe(2-F) = C[C@](N)(Cc1ccccc1F)C(=O)O; γGlu = O=C(O)[C@H](CCC(=O)[*:2])N[*:1]; αMe4Pal = C[C@](N)(Cc1ccncc1)C(=O)O; αMeY = C[C@](N)(Cc1ccc(O)cc1)C(=O)O; 4Pal = N[C@@H](Cc1ccncc1)C(=O)O; αMeL = CC(C)C[C@](C)(N)C(=O)O; αMeS = C[C@](N)(CO)C(=O)O; Orn = NCCC[C@H](N)C(=O)O; AEEA = NCCOCCOCC(=O)O; Aib = CC(C)(N)C(=O)O

Assays:
Type in all cases: cell-based
hGIPR [1] = target: T1, hGIPR (Homo sapiens, UniProt P48546); assay: Functional cAMP activity in the presence of 1% HSA; conditions: read-out: cAMP Rel EC50, hGIPR
T1 sequence (P48546 22-466): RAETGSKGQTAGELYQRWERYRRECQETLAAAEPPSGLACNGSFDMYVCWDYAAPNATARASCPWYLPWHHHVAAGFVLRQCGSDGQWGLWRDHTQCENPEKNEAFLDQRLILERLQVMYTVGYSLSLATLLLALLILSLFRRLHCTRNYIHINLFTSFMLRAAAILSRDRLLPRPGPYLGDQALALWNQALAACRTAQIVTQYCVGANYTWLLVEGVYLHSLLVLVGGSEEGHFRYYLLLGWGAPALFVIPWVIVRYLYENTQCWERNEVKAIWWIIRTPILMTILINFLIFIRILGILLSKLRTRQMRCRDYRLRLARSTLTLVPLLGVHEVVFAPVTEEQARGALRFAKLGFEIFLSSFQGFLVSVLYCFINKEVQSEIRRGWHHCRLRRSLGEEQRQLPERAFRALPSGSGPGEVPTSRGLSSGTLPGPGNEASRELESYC

hGcgR = hGcgR (Homo sapiens, UniProt P47871); assay: Functional cAMP activation in the presence of 0.1% casein (no HSA); conditions: read-out: Relative cAMP EC50, hGcgR;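 note: intracellular cAMP rise after 30 min at 37 °C, read by HTRF against a cAMP standard curve, scaled from buffer only (0%) to maximal control ligand response (100%)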
human GcgR = human GcgR (Homo sapiens, UniProt P47871); assay: Functional cAMP activity in the presence of 1% HSA; conditions: read-out: cAMP Rel EC50, hGcgR
hGIPR [2] = target: T1, hGIPR; assay: Functional cAMP activation in the presence of 0.1% casein (no HSA); conditions: read-out: Relative cAMP EC50, hGIPR;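 for Relative cAMP EC50, hGIPR: intracellular cAMP rise after 30 min at 37 °C read by HTRF against a standard curve, scaled between buffer alone (0%) and top control ligand concentration (100%), four-parameter fit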;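 for Relative cAMP EC50, hGLP-1R: intracellular cAMP rise after 30 min at 37 °C read by HTRF, normalized between buffer only (0%) and maximal control ligand (100%), four-parameter variable-slope fit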
hGLP-1R [3] = target: T2, hGLP-1R (Homo sapiens, UniProt P43220); assay: as above; conditions: read-out: Relative cAMP EC50, hGLP-1R;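 note: intracellular cAMP rise after 30 min at 37 °C read by HTRF, normalized between buffer only (0%) and maximal control ligand (100%), four-parameter variable-slope fit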
hGLP-1R [4] = target: T2, hGLP-1R; assay: Functional cAMP activity in the presence of 1% HSA; conditions: read-out: cAMP Rel EC50, hGLP-1R
[5] = in the presence of 0.1% casein (no HSA), geometric mean

human GcgR, sequence (P47871 26-477): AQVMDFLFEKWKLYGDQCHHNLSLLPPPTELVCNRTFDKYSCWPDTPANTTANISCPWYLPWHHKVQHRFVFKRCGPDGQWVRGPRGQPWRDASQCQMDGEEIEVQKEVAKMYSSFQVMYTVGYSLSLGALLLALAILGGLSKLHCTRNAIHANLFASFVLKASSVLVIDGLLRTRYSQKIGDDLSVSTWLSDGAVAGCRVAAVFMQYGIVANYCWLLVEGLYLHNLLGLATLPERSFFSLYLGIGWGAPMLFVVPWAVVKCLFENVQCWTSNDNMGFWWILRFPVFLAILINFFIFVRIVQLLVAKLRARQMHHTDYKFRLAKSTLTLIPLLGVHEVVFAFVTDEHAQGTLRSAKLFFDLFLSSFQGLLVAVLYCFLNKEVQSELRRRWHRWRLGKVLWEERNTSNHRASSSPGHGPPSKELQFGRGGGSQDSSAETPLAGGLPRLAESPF
hGcgR, sequence (P47871 26-477): as above
T2 sequence (P43220 24-463): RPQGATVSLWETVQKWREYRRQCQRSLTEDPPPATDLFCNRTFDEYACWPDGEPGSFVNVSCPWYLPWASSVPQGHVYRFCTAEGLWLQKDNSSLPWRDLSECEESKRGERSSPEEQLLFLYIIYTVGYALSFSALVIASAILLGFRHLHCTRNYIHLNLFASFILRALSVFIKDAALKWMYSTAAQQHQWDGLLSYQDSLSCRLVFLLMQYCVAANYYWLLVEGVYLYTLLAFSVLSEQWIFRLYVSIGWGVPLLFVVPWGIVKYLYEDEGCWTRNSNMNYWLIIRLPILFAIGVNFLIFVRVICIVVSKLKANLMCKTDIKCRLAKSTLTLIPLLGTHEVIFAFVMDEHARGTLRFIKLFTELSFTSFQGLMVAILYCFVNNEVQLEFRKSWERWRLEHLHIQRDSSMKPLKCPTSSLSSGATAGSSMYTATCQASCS

Compound	pEC50 (hGIPR [1])	pEC50 (hGcgR)	pEC50 (human GcgR)	pEC50 (hGIPR [2])	pEC50 (hGLP-1R [3])	pEC50 (hGLP-1R [4])	pEC50 (hGcgR; [5])	pEC50 (hGIPR [2]; [5])	pEC50 (hGLP-1R [3]; [5])
H-Y[Aib]QGT[αMePhe(2-F)]TSD[4Pal]SI[αMeL]LD[Orn]K([AEEA-γGlu-C18 diacid])AQ[αMe4Pal]EFI[dE][αMeY]LLEGGPSSGAPPPSGS-NH2 [Example 641]	9.08	8.43	6.35	11.09	9.31	7.17	–	–	–
H-Y[Aib]QGT[αMePhe(2-F)]TSD[4Pal][αMeS]I[αMeL]LD[Orn]K([AEEA-γGlu-C18 diacid])AA[Aib]EFI[dE][αMeY]LIEGGPSSGEPPPSGGGE-NH2 [Example 746]	8.84	8.79	6.59	10.92	9.58	7.41	–	–	–
Y[Aib]QGT[αMePhe(2-F)]TSD[4Pal][αMeS]I[αMeL]LD[Orn]K([γGlu-γGlu-C18 diacid])AQ[Aib][Orn]FI[dE][αMeY]LQEGGPSSGEPPPEGGEE-NH2 [Example 586]	8.61	8.34	6.52	10.34	9.23	7.54	–	–	–
H-Y[Aib]QGT[αMePhe(2-F)]TSDYSILLDKK([AEEA-γGlu-C18 diacid])AQ[Aib]AFIEYLEEGGPSSGAPPPEEG-NH2 [Example 399]	7.71	8.82	6.25	10.38	9.52	7.37	–	–	–

Now from value to compound:

pEC50 (hGIPR [1])	pEC50 (hGcgR)	pEC50 (human GcgR)	pEC50 (hGIPR [2])	pEC50 (hGLP-1R [3])	pEC50 (hGLP-1R [4])	pEC50 (hGcgR; [5])	pEC50 (hGIPR [2]; [5])	pEC50 (hGLP-1R [3]; [5])	Compound
8.71	8.13	6.58	10.74	9.43	7.69	–	–	–	CC[C@H](C)[C@H](NC(=O)[C@H](CC(C)C)NC(=O)[C@](C)(Cc1ccncc1)NC(=O)[C@@H](CCC(=O)O)NC(=O)[C@@H](NC(=O)[C@H](Cc1ccccc1)NC(=O)[C@H](CCCN)NC(=O)C(C)(C)NC(=O)[C@H](CCC(N)=O)NC(=O)[C@H](C)NC(=O)[C@H](CCCCNC(=O)COCCOCCNC(=O)CC[C@H](NC(=O)CCCCCCCCCCCCCCCCC(=O)O)C(=O)O)NC(=O)[C@H](CCCN)NC(=O)[C@H](CC(=O)O)NC(=O)[C@H](CC(C)C)NC(=O)[C@](C)(CC(C)C)NC(=O)[C@@H](NC(=O)[C@](C)(CO)NC(=O)[C@H](Cc1ccncc1)NC(=O)[C@H](CC(=O)O)NC(=O)[C@H](CO)NC(=O)[C@@H](NC(=O)[C@](C)(Cc1ccccc1F)NC(=O)[C@@H](NC(=O)CNC(=O)[C@H](CCC(N)=O)NC(=O)C(C)(C)NC(=O)[C@@H](N)Cc1ccc(O)cc1)[C@@H](C)O)[C@@H](C)O)[C@@H](C)CC)[C@@H](C)CC)C(=O)N[C@@H](CCC(=O)O)C(=O)NCC(=O)NCC(=O)N1CCC[C@H]1C(=O)N[C@@H](CO)C(=O)N[C@@H](CO)C(=O)NCC(=O)N[C@@H](CCC(=O)O)C(=O)N1CCC[C@H]1C(=O)N1CCC[C@H]1C(=O)N1CCC[C@H]1C(=O)N[C@@H](CCC(=O)O)C(N)=O [Example 453] (H-Y[Aib]QGT[αMePhe(2-F)]TSD[4Pal][αMeS]I[αMeL]LD[Orn]K([AEEA-γGlu-C18 diacid])AQ[Aib][Orn]FI[dE][αMe4Pal]LIEGGPSSGEPPPE-NH2)
9.05	–	6.54	–	–	7.35	8.74	11.04	9.36	H-Y[Aib]QGT[αMePhe(2-F)]TSD[4Pal][αMeS]I[αMeL]LD[Orn]K([AEEA-γGlu-C18 diacid])AQ[αMe4Pal]EFI[dE][αMeY]LVEGGPSSGEPPPGGE-NH2 [Example 1155]
